The record followed here is ChEMBL document CHEMBL2401727, “Searching for new antiarrhythmic agents: evaluation of meta-hydroxymexiletine enantiomers” (Eur J Med Chem, 2013).

The subject of data set [1] is Heart. As to the kind of experiment: Antiarrhythmic activity in guinea pig left atria assessed as increase of threshold of 1 Hz alternating current-induced arrhythmia at 10^-6 M measured every 30 mins relative to control. The class given is functional, Cavia porcellus.
Data set [2] relates to Heart. The data set is described as follows: Antiarrhythmic activity in guinea pig left atria assessed as increase of threshold of 1 Hz alternating current-induced arrhythmia at 1 Hz measured every 30 mins. It counts as functional, tissue-based. As to conditions: Cavia porcellus, 0.5 h.
For data set [3], the system named is Left cardiac atrium. The data set is described as follows: Negative inotropic activity in guinea pig left atria assessed as decrease of 1 Hz current-induced developed tension. It counts as functional. The note with it: Cavia porcellus.
Data set [4] is described as follows: Negative chronotropic activity in guinea pig spontaneously beating right atria assessed as decrease in atrial rate at 10^-5 M relative to control. Also on record: scale not given: the % may be the effect or the level left. It counts as functional, Cavia porcellus, Cardiac atrium.
Data set [5] concerns Ileum. The data set is described as follows: Relaxtant activity in guinea pig K+-depolarized ileum longitudinal smooth muscle assessed as inhibition of calcium-induced contraction at 10^-4 M relative to control. The class given is functional. The note with it: Cavia porcellus.
Data set [6] concerns Aorta. The data set is described as follows: Vasorelaxant activity in guinea pig K+-depolarized aortic strip assessed as inhibition of calcium-induced contraction at 5 X 10^-5 M relative to control. The class given is functional. The note with it: Cavia porcellus.
The test system of data set [7] is Left cardiac atrium. As to the kind of experiment: Negative inotropic activity in guinea pig left atria assessed as decrease of 1 Hz current-induced developed tension at 10^-6 M relative to control. The class given is functional, Cavia porcellus. Set-up: scale not given: the % may be the effect or the level left.
Data set [8] deals with Ileum. As to the kind of experiment: Relaxtant activity in guinea pig K+-depolarized ileum longitudinal smooth muscle assessed as inhibition of calcium-induced contraction. The class given is functional, tissue-based. The note with it: Cavia porcellus.
Data set [9] concerns Heart. The data set is described as follows: Antiarrhythmic activity in guinea pig left atria assessed as increase of threshold of 1 Hz alternating current-induced arrhythmia at 10^-4 M measured every 30 mins relative to control. It counts as functional, Cavia porcellus.
Data set [10] deals with Left cardiac atrium. As to the kind of experiment: Negative inotropic activity in guinea pig left atria assessed as decrease of 1 Hz current-induced developed tension at 5 X 10^-5 M relative to control. The class given is functional, Cavia porcellus. Set-up: scale not given: the % may be the effect or the level left.
Data set [11] concerns Aorta. As to the kind of experiment: Vasorelaxant activity in guinea pig K+-depolarized aortic strip assessed as inhibition of calcium-induced contraction at 10^-4 M relative to control. As to conditions: Cavia porcellus. The class given is functional.
Data set [12] in a line: Elimination half life in human. The note with it: in vivo.

Each structure is given as a SMILES string.

With `Cc1ccc(O)c(C)c1OC[C@@H](C)N`, the “%max” value in [1] came to 66%. The EC50 (commonly the concentration at which the effect is half-maximal) came to 0.56 µM in [2] and 0.025 µM in data set [3]. Further, the Activity in [4] is recorded as 34%; in [7], 89%. The inhibition – broadly, the drop in the measured response relative to a control, in per cent – at 100 µM in data set [5] stood at 47%. For the same compound, the inhibition at 50 µM in data set [6] came out at 1%.

Regarding `Cc1ccc(O)c(C)c1OC[C@H](C)N`, in [8], the IC50 (as a rule, the concentration that inhibits the measured activity by half) was 13.6 µM. In addition, the “%max” value in data set [9] is given as 13%. For the same compound, the EC50 in [3] turned out to be 0.12 µM. The figures for the Activity in data set [4] and in data set [10] were 16% and 93%, respectively. Further, the values for the inhibition at 100 µM in data set [5] and in data set [11] were 75% and 4%, respectively.

Turning to `Cc1ccc(O)c(C)c1OCC(C)N` (racemic), in data set [8], the IC50 amounted to 25.8 µM. In [5], the inhibition at 100 µM stood at 51%.

As to `Cc1cccc(C)c1OCC(C)N` (centres undefined) [MEXILETINE], in [8], the IC50 was determined as 8.52 µM. Also, the inhibition at 100 µM in [5] came out at 81%. The half-life (commonly the time needed for the level to fall by half in the phase considered) in data set [12] is 10 h.
